Reference: patent US10052305B2, “Lipoic acid and derivatives thereof for the treatment of cystinuria” (Buck Institute for Research on Aging, priority 2015, dated 2018)

Key:
Type in all cases: in vivo
Slc3a1−/− mice [1] = assay: Prevention of cystine stone formation in a genetic mouse model of cystinuria, evaluated by micro-computed tomography (μCT)
Description: A genetic mouse model of cystinuria was used to study the formation of cystine urinary stones. Mice lacking the gene Slc3a1 (Slc3a1^−/−) were fed a diet supplemented with 0.5% (±)-α-lipoic acid and evaluated for the formation of cystine stones using micro-computed tomography (μCT). […] On average, mice treated with lipoic acid developed much smaller cystine stones (mm^3). This experiment was repeated again (Experiment 2) with similar results; none (0 out of 6) of the lipoic acid treated cystinuric mice developed stones while all control, non-treated mice (8 out of 8) had developed urinary stones had developed stones by day 27 of the study.

Slc3a1−/− mice [2] = assay: Effect on cystine urinary stone growth tracked by μCT after switch to a lipoic acid diet; conditions: Slc3a1−/− mice on standard diet, switched on day 54 to diet with 0.5% (±)-α-lipoic acid; before vs after treatment
Description: To evaluate the effect of lipoic acid on cystine urinary stone growth, stone development was tracked by micro-computed tomography (μCT) in Slc3a1^−/− mice fed a standard diet. On day 54 of the study, the mice were switched onto a diet supplemented with 0.5% (±)-α-lipoic acid.

[3] = Real time food and water intake in metabolic cages; conditions: Slc3a1−/− mice; 0.5% (±)-α-lipoic acid diet vs standard diet; 3 days after 3 days of acclimation
Description: Real time food and water intake was measured in Slc3a1^−/− mice treated with 0.5% (±)-α-lipoic acid supplemented diet by group housing in metabolic cages. Mice were acclimated to the metabolic cage environment for 3 days and then evaluated for food and water intake for the subsequent 3 days.

- light cycle, dark cycle, or total food intake [3]: did not especially alter
- light cycle, dark cycle, or total water intake [3]: did not especially alter
Structure (SMILES): O=C(O)CCCCC1CCSS1 (racemic) [Lipoic acid, (±)-α-lipoic acid]
- mice that developed stones (Slc3a1−/− mice [1]; Experiment 2 (repeat), by day 27 of the study, non-treated mice 8 out of 8): 0 out of 6
- average cystine stone size vs non-treated mice (Slc3a1−/− mice [1]; first experiment (FIG. 2), diet supplemented with 0.5% (±)-α-lipoic acid): much smaller
- mice that developed cystine stones (Slc3a1−/− mice [1]; first experiment (FIG. 2), diet supplemented with 0.5% (±)-α-lipoic acid, non-treated mice 7/7): 2 out of 8
- decrease of the rate of stone volume accumulation (mm^3/day) (Slc3a1−/− mice [2]): 90%
